In general, IC50 refers to the midpoint of a concentration-inhibition curve.

Molecules are shown by their SMILES.

One data set deals with HepG2. Briefly: MTT cell viability assay. The following applies: Homo sapiens, HepG2 hepatocellular carcinoma cells. It counts as cell-based, human. As for the experimental part:
The human colorectal cancer cell lines, HCT116 and LoVo, the breast cancer cell line, T47D, the hepatocellular carcinoma cell line, HepG2, the normal human liver cell line, HL7702, human umbilical vein endothelial cells (HUVECs), and the non-small cell lung cancer cell lines, A549, H1993, HCC827, H460, were purchased from the American Type Culture Collection (Manassas, VA, United States). Cell lines were cultured in the recommended RPMI-1640 medium (AE24464298, Hyclone, United States) and DMEM medium (AE29422278, Hyclone, United States) supplemented with 10% fetal bovine serum (FBS; JC63470, FB15015, Clark, United States) with 1% penicillin-streptomycin. Cells were maintained in an incubator at 37°C with 5% CO2 (HF90,Sanyo, Japan) and passaged every 48–72 h, after detaching with 0.25% trypsin (Sigma, United States). The compounds ZLDI-8 and NY-1 to -15 were synthesized in the laboratory of Dr. Huaiwei Ding in Shenyang Pharmaceutical University, and verified by high-performance liquid chromatography (purity >95%) for use in experiments (Supplementary Figure S1). Paclitaxel was purchased from MedChemExpress (HY-B0015, 99.97% purity, United States).
(§1) Cell viability was measured by the MTT assay. HCT116, HL7702, A549, H1993, HCC827, and H460 cells were dispensed into 96-well plates at a density of 1 × 10^5 cells/mL. After 24–48 h incubation, cells were treated with the compounds at different concentrations for the indicated periods. An assay kit (WLA073, Wanlei Co., Liaoning, China), was used according to the manufacturer’s instructions to measure LDH activity, The absorbance at 450 nm was measured with a microplate reader (Elx-800, Bio-Rad, China).
The preliminary antitumor activity of the series of ZLDI-8 derivatives, NY-1 to -15 was screened by the MTT cell viability assay. […] The antitumor activity of NY-2 on HCT116 cells was concentration- and time-dependent, and slightly better than that of the original compound, ZLDI-8.
A general note: Tetrazolium assays rely on reduction of a dye to a coloured formazan, in cell work by metabolically active cells.

Data set [1] concerns A549 cells. As to the kind of experiment: Wound-healing migration assay. The data set is classed as cell-based, human. The following applies: 48 h. How it is done: A wound-healing assay was used to assess the migration ability. Cells were seeded into 6-well plates at 3 × 10^5 cells per well. At about 90% confluence, uniform scratches were made in the monolayer using a sterile 200 μL pipet tip. After washing with phosphate-buffered saline (PBS), the cells were cultured in 2% FBS medium and photos were taken at 0 and 48 h. The rate of cell migration was determined by measuring the decrease in gap with compared to the initial gap at 0 h. Readings were performed independently in triplicate.

For data set [2], the system named is A549 cells. As to the kind of experiment: Transwell invasion assay. The following applies: 48 h. It counts as cell-based, human. How it is done:
For the transwell invasion assay, Matrigel (50 mg/L) was diluted 1:8 with serum-free medium, and 60 μL of diluted Matrigel was pipetted into each transwell (Corning, NY, United States) and incubated overnight. The upper chamber was seeded with 1× 10^5 cells that had been starved for 24 h in 100 µL of serum-free medium, and 700 µL of medium with 10% FBS was added to the lower compartment. After cultivation for 48 h at 37°C, the cells in the upper chamber were removed with a cotton swab, and the cells on the lower surface of the filter were fixed with methanol for 20 min and stained with 0.1% crystal violet after drying. Excess stain was eluted with 33% acetic acid, and the absorbance was measured at 490 nm.

The subject of another data set is Notch1 and integrinβ1. Briefly: Western blot protein analysis. It counts as cell-based, human. The text has this: Antibodies against ADAM17 (Cat. No. ab39163), Notch1 (Cat. No. ab52627), integrin β1 (Cat. No. ab52971), β-actin (Cat. No. ab8226), and anti-rabbit IgG (Cat. No. ab6728) and anti-mouse IgG (Cat. No. ab190475) secondary antibodies conjugated with horseradish peroxidase (HRP) were purchased from Abcam (Cambridge, United Kingdom). Total protein was extracted from HCC cells, and samples were separated by SDS-PAGE and blotted to polyvinylidene fluoride (PVDF) membranes (Millipore, Billerica, MA, United States). The membranes were blocked and then incubated with primary antibodies, followed by washing and incubation with HRP-conjugated secondary antibodies. Stained blots were developed with enhanced chemiluminescence reagents (Pierce, Rockford, IL, United States) and imaged on X-ray film.
(In general: In western blotting, separated proteins are transferred to a membrane and probed.)

A further data set has as its system HUVECs. As to the kind of experiment: MTT cytotoxicity on normal cells. The data set is classed as cell-based, human. Particulars: concentration of 10 μM or below, 48 h. As for the experimental part:
The human colorectal cancer cell lines, HCT116 and LoVo, the breast cancer cell line, T47D, the hepatocellular carcinoma cell line, HepG2, the normal human liver cell line, HL7702, human umbilical vein endothelial cells (HUVECs), and the non-small cell lung cancer cell lines, A549, H1993, HCC827, H460, were purchased from the American Type Culture Collection (Manassas, VA, United States). Cell lines were cultured in the recommended RPMI-1640 medium (AE24464298, Hyclone, United States) and DMEM medium (AE29422278, Hyclone, United States) supplemented with 10% fetal bovine serum (FBS; JC63470, FB15015, Clark, United States) with 1% penicillin-streptomycin. […]
Cell viability was measured by the MTT assay. […] An assay kit (WLA073, Wanlei Co., Liaoning, China), was used according to the manufacturer’s instructions to measure LDH activity, The absorbance at 450 nm was measured with a microplate reader (Elx-800, Bio-Rad, China).
First, the effects of NY-2 and ZLDI-8 on the survival rates of four NSCLC cell lines, A549, H1993, HCC827, H460, were compared by the MTT cytotoxicity assay. The various types of NSCLC cells were incubated with increasing concentrations of NY-2 and ZLDI-8 (1.25, 2.5, 5, 10, and 20 μM), and the cell viability at 48 h was measured. […]

The test system of data set [3] is A549 cells. As to the kind of experiment: LDH activity assay. The data set is classed as cell-based, human. The following applies: 48 h, increasing concentrations, vs control. How it is done:
as §1

Data set [4] in a line: Acute toxicity assay in KM mice. The data set is classed as in vivo. Particulars: tail vein injection 1000 mg/kg in saline, 10 days observation, 6 animals per group. How it is done: An acute toxicity assay was assessed in KM mice by tail vein injection of NY-2 dissolved in saline at a dose of 1000 mg/kg (6 animals per group).
A short description of data set [5]: Metabolic stability, liver microsome incubation. The following applies: 100 μM. It counts as in vitro ADME. As for the experimental part: Rat liver microsomes (RLMS) and human liver microsomes (HLMs) were purchased from RILD and BioIVT, respectively.The metabolic stability of 100 μm Zldi-8 and NY-2 in rat and human liver microsomes was investigated. Zldi-8/NY-2(100 ΜM)10 μl, mgcl210 ΜL, RLMs/HLMs 62.5 μl, PBS (ph 7.4)117.5 μl, NADPH 50 ΜL were added to the metabolic incubation system in ice bath, respectively.After adding in sequence, the incubation systems were pre-incubated for 3 min in a 37 ° C incubator, and then NADPH was added to start the reaction, and the incubation systems were removed at 0 min, 5 min, 10 min, 20 min, 30 min, 60 min, 90 min, 50 ΜL incubation solution was taken out respectively, and the reaction was stopped by rapidly adding equal volume of ice acetonitrile solution containing propranolol hydrochloride (internal standard) , vortex for 3 min, centrifugation at 4 ° C, 9500 rpm for 10 min, the content of the supernatant was determined by HPLC.The experiment was repeated three times in parallel.
(In general: Microsomes from liver hold many membrane-bound enzymes, among them those of drug oxidation.)

Regarding `Cc1ccc(OCCn2c(C)c(C=C3C(=O)NC(=S)NC3=O)c3ccccc32)c(C)c1` [ZLDI-8, reference compound], the IC50 with HepG2 was 22.9 µM.

As for `Cc1c(C=C2C(=O)NC(=S)NC2=O)c2ccccc2n1CCOc1ccc(F)cc1` [NY-2], the “migration of A549 cells” value in the data set on A549 cells [1] is “inhibit the invasion and migration of A549 cells in a concentration-dependent manner”. The compound also registered an IC50 in the data set with HepG2 of 20 µM. In addition, the “invasion of A549 cells” value in the data set with A549 cells [2] is “inhibit the invasion and migration of A549 cells in a concentration-dependent manner”. Besides, in the data set on Notch1 and integrinβ1, the “expression of Notch1 and integrinβ1” value is “reduced the expression of Notch1 and integrinβ1in a dose-dependence manner”. Besides, in the data set with HUVECs, the “cytotoxic effects on HUVEC cells” value was “no obvious cytotoxic effects”. Further, in the data set with A549 cells [3], the “LDH activity in cell culture supernatants” value is recorded as “increased in a concentration-dependent manner”. The “deaths in acute toxicity assay” value in data set [4] was “no deaths occurred”. Besides, the “residual level (metabolic stability)” value in data set [5] (human liver microsomes) and in data set [5] (rat liver microsomes) was “greater than that of ZLDI-8” in each case.

(Values after publication PMC9884808, “Pharmacokinetics, tissue distribution, and antitumor activity of a novel compound, NY-2, in non-small cell lung cancer” (Frontiers in Pharmacology, 2023).)
